{
  "source": "patent US5420289A",
  "about": "“Substituted indole-, indene-, pyranoindole- and tetrahydrocarbazole-alkanoic acid derivatives as inhibitors of PLA2 and lipoxygenase” (American Home Products Corporation, priority 1993, dated 1995)",
  "key": {"[1]": {"biological_target": "T1, human synovial fluid PLA2 (Homo sapiens, UniProt P14555)", "T1 sequence (P14555 21-144)": "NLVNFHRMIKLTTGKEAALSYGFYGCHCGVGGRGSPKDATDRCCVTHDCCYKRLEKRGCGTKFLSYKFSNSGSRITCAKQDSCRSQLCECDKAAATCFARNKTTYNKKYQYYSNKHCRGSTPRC", "experiment": "in vitro isolated phospholipase A2 assay, human synovial fluid PLA2 (Example 74)", "type": "biochemical", "parameters": "inhibition / % Inhibition, HSF (human synovial fluid): dose or concentration left out as unconfirmed", "conditions": "for inhibition: read-out: % Inhibition, HSF (human synovial fluid)", "outline": "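Human synovial fluid PLA2 (purified) acts on ³H-arachidonate-labelled E. coli substrate, 10 minutes at 37° C with shaking; stopped with tetrahydrofuran. Released arachidonic acid is isolated on NH2 columns, eluted with tetrahydrofuran/2% acetic acid and quantitated by β-counting against a total-counts sample.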"}, "[2]": {"system": "5-lipoxygenase in human whole blood", "experiment": "inhibition of 5-lipoxygenase in human whole blood (Example 79)", "type": "cell-based", "conditions": "for % Inhibition of LTB4: 25 μM", "outline": "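Donor whole blood pre-incubated 10 min at 37° C with compound (0.1% DMSO final), then stimulated with […] calcium ionophore A23187 for 20 min at 37° C; stopped on ice with EGTA. Plasma LTB4, TxB2 and PGE2 measured by RIA or ELISA as ng/10^6 neutrophils; effects expressed as percent change from control.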"}, "[3]": {"biological_target": "T2, LTD4 (isolated guinea pig trachea) (Cavia porcellus, UniProt Q2NNR5)", "T2 sequence (Q2NNR5 1-340)": "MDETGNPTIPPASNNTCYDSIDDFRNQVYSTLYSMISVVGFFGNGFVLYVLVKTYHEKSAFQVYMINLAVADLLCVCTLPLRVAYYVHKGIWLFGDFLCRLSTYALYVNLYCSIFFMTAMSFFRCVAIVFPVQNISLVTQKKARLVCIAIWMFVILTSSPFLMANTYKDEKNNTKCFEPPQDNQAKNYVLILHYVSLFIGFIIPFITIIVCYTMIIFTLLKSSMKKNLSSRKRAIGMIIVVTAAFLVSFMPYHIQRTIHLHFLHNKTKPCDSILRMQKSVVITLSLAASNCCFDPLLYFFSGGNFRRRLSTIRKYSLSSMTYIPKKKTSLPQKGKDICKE", "experiment": "in vitro isolated guinea pig trachea assay, LTD4 antagonism (Example 77)", "parameters": "from tissue; host or cells: isolated trachea rings of male Hartley guinea pigs; species or system guinea pig (male Hartley)", "conditions": "Table VII; 1 × 10^-5 M", "protocol": "The LTD4 antagonist activity of the compounds of the invention is assessed in the in vitro isolated guinea pig trachea assay. This assay is carried out as follows: Male Hartley guinea pigs (350-400 g) are euthanized by a blow to the head, the neck is opened and the trachea removed. The trachea is maintained in aerated physiological salt solution, cleared of connective tissue and fat and cut into tings approximately 2 nxn in width (usually containing two cartilaginous segments per ting). Two pieces of silk suture are then passed through the lumen of the tracheal ring and are tied around the cartilage, one on each side of the trachealis muscle. The tracheal ting is suspended between a glass hook and a force […] transducer in a 10 mL organ bath for measurement of isometric tension. […] The tracheal […] maintained at 2 g resting tension and equilibrated for 45 minutes (with frequent washing and readjustment of resting tension). The tracheal rings are first contracted by the addition of carbachol (3×10^-6 M), to determine tissue responsiveness and establish a reference contraction. On attainment of a stable level of contraction (approximately 30 minutes), the tissues are washed several times until baseline tension has been restored and then re-equilibrated for 30 minutes. The tissues are then incubated for 45 minutes with a test antagonist (either 1×10^-6 M or 1×10^-5 M) or […] of an appropriate solvent control (control, non-treated). One tissue in each group serves as the control. Twenty minutes prior to the construction of the LTD4 cumulative concentration-response curve, L-[…]×10^-2 M final bath concentration) is added to inhibit bioconversion of LTD4 to LTE4. Only one LTD4 concentration-response curve is constructed in each tissue. All responses to LTD4 in an individual tissue are measured as a percentage of the reference contraction of that tissue to carbachol. LTD4 antagonist activity is determined by comparison of the concentration response curves of LTD4 in the presence and absence of antagonist. Assessment of the relative rightward shift of the antagonist treated curve relative to the solvent (control) treated tissue is calculated as a concentration ratio (Eq. A) and used in subsequent calculations to derive an antagonist pKB value (Eqs B and C). […] If a compound is found to be active and/or depress the maximal response to LTD4, then a range of concentrations of the test compound should be used generating multiple concentration ratios which would then be used to perform a Schild analysis, and determination of a pA2 value where appropriate."}, "[4]": {"system": "cyclooxygenase (PGE2 synthesis) in rat polymorphonuclear leukocytes (PMN)", "experiment": "inhibition of PGE2 synthesis (cyclooxygenase) by rat glycogen-elicited PMN (Example 73)", "type": "cell-based, rat (female Wistar)", "conditions": "Leukocyte, * (negative) denotes a potentiation; for inhibition at 500 µM: at 0.5 mM; for inhibition at 10000 µM: at 10 mM, read-out: % Inhibition (PGE2 synthesis)", "protocol": "(§1) Rat polymorphonuclear leukocytes (PMNs) are obtained from female Wistar rats (150-200 g) which receive an injection of 6% glycogen (10 ml i.p.). Rats are sacrificed 18-24 hours post injection by CO2 asphyxiation and the elicited cells are harvested by peritoneal lavage using physiological saline (0.9% NaC1). The exudate is centrifuged at 400 ×g for 10 minutes. The supernatant fluid is discarded and the cell pellet is resuspended to a concentration of 2.0×10^7 cells/mL in HBSS containing Ca^++ and Mg^++ and 10 mM L-cysteine.\n(§2) To 1 mL aliquots of cell suspension, test drugs or vehicle are added, then preincubated at 37° C. for 10 minutes. A23187 (1 mM), [^3 H]-AA (3.0 mCi/mL) and unlabeled AA (1 mM) are then added and the samples are further incubated for 10 minutes. The reaction is terminated by centrifugation and pelleting cells. Supernatants are then analyzed by HPLC analysis on a 15 cm×4.6 mm ID supelcosil LC-18 (Supelco)(3M) column, using a two solvent system at a flow rate of 1.4 mL total flow as follows:\nIn this assay, the procedure of Example 72 is carried out as described. However, in order to determine cyclooxygenase activity, the samples are cochromatographed with authentic reference [^3 H]-PGE2.\nThe results be calculated as in Example 72 and presented below: […]"}, "carrageenan paw edema": {"system": "carrageenan paw edema", "experiment": "rat carrageenan paw edema assay (Example 78)", "type": "in vivo, rat (male Sprague-Dawley)", "protocol": "The compounds of the invention are further tested in the rat carrageenan paw edema assay to determine their ability to inhibit the acute inflammatory response.\nThis assay is carried out as follows: 140-180 g Male Sprague-Dawley rats, in groups of 6 animals are injected subcutaneously in the right paw with 0.1 mL of 1% carrageenan at zero time. Mercury plethysmographic readings (mL) of the paw are made at zero time and 3 hours later. Test compounds are suspended or dissolved in 0.5% methylcellulose and given perorally 1 hour prior to carrageenan administration.\nThe increase in paw volume (edema in mL) produced by the carrageenan is measured. Paw edema is calculated (3 hour volume minus zero time volume), and percent inhibition of edema is determined. Unpaired Student's t-test is used to determine statistical significance."}, "[5]": {"system": "synthesis of LTB4 by rat glycogen-elicited polymorphonuclear leukocytes (PMN)", "experiment": "inhibition of LTB4 synthesis by rat glycogen-elicited PMN (Example 72)", "type": "cell-based, rat (female Wistar)", "conditions": "Leukocyte; for inhibition at 500 µM: at 0.5 mM; for inhibition at 10000 µM: at 10 mM, negative number denotes potentiation", "source_text": "This is especially true with respect to 5,12-diHETE, which is also denoted as LTB4 lsee Ford-Hitchinson, J. Roy. Soc. Med., 74, 831 (1981)]. Compounds which inhibit the PLA2 -mediated release of arachidonic acid thereby effectively prevent the oxidation of arachidonic acid to the various leukotriene products via the lipoxygenase cascade. Accordingly, the specificity of action of PLA2 inhibitors can be determined by the activity of test compounds in this assay, which measures the ability of compounds to inhibit the synthesis of LTB4 by rat glycogen-elicited polymorphonuclear leukocytes (PMN) in the presence of exogenous substrate.\nThe assay is carded out as follows:\nas §1, §2\nGradient: (system is equilibrated with Solvent A)\nPercent solvent changes are accomplished in a linear fashion.\nInjections: […] of each supernatant is injected directly onto column and ^3 H arachidonic acid metabolites are monitored using an on-line radioactivity detector (Ramona, IN/U S, Fairfield, NJ).\nStandards: 10^4 -2.0×10^4 dpm of eicosanoids of interest are injected in […] EtOH cocktail.\nCo-chromatography with standard [^3 H] leukotriene B4 (LTB4) in medium of stimulated PMN exposed to drug is compared to that found in medium of stimulated cells exposed to no drug, generating percent inhibition.\nResults are expressed as percent inhibition at a given compound dose or as an IC50 value."}, "[6]": {"system": "paw edema induced by PLA2 from the diamond back cotton mouth snake (A. piscivorus piscivorus)", "experiment": "in vivo PLA2 murine paw edema assay (Example 75)", "parameters": "species or system mouse (male CD-1)", "conditions": "30 mg/kg i.p.; 30 min"}, "human platelet PLA2": {"biological_target": "T3, human platelet PLA2 (Homo sapiens, UniProt P14555)", "T3 construct": "Semi-purified human platelet acid extract PLA2; from tissue; host or cells: human platelets (semi-purified acid extract)", "T3 sequence (P14555 21-144)": "T1 sequence (P14555 21-144)", "experiment": "in vitro isolated phospholipase A2 assay, human platelet PLA2 (Example 74)", "type": "biochemical", "parameters": "dose or concentration left out as unconfirmed", "conditions": "read-out: % Inhibition, HP (human platelet)", "outline": "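Semi-purified human platelet acid-extract PLA2 (pH 4.5 acetate) was incubated with ³H-arachidonate-labelled E. coli substrate for 10 min at 37° C. The reaction was terminated with tetrahydrofuran. Released arachidonic acid was isolated on NH2 columns and quantified by β-counting against total counts.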"}},
  "note": "Counter-ions that a name gives are not always drawn.",
  "data": [
    {"smiles": "CCN(CC)C(=O)Cc1c(C)n(Cc2ccccc2)c2ccc(OCc3nc4ccccc4s3)cc12", "note": "[Example 52, 5-(2-Benzothiazolylmethoxy)-N,N-diethyl-1-(phenylmethyl)-2-methyl-1H-indole-3-acetamide]", "values": [
      {"measurement": "inhibition", "setting": "[1]", "value": 12, "unit": "%"},
      {"measurement": "% Inhibition of LTB4", "setting": "[2]", "value": 68, "unit": "%"},
      {"measurement": "IC50", "setting": "[2]; human whole blood, read-out: IC50 (inhibition of LTB4)", "value": 19.9, "unit": "µM"},
      {"measurement": "Kb", "setting": "[3]", "value": 2510, "unit": "nM"}
    ]},
    {"smiles": "Cc1c(CC(=O)O)c2cc(OCc3ccc4ccccc4n3)ccc2n1Cc1ccc(Cl)cc1", "note": "[Example 43, 1-[(4-Chlorophenyl)methyl]-2-methyl-5-(2-quinolinylmethoxy)-1H-indole-acetic acid tromethamine salt hemi-ethanolate]", "values": [
      {"measurement": "Kb", "setting": "[3]", "value": 1000, "unit": "nM"}
    ]},
    {"smiles": "CCc1cccc2c3c([nH]c12)C(CC)(CC(=O)O)OCC3", "note": "(stereo not drawn) [etodolac, reference compound]", "values": [
      {"measurement": "inhibition at 500 µM", "setting": "[4]", "value": 100, "unit": "%"},
      {"measurement": "ED50", "setting": "carrageenan paw edema; Rattus norvegicus, 3 h, oral, Table VIII", "value": 23, "unit": "mg/kg"},
      {"measurement": "inhibition at 500 µM", "setting": "[5]", "value": 21, "unit": "%"}
    ]},
    {"smiles": "CCC1(CC(=O)O)OCCc2c1[nH]c1ccc(OCc3ccc4ccccc4n3)cc21", "note": "(stereo not drawn) [Example 9, 1-Ethyl-1,3,4,9-tetrahydro-6-(quinolinylmethoxy)pyrano[3,4-b]indole-1-acetic acid]", "values": [
      {"measurement": "inhibition at 10000 µM", "setting": "[4]", "value": 75, "unit": "%"},
      {"measurement": "inhibition at 10000 µM", "setting": "[5]", "value": 96, "unit": "%"},
      {"measurement": "Kb", "setting": "[3]", "value": 550, "unit": "nM"}
    ]},
    {"smiles": "Cc1c(CC(=O)O)c2cc(OCc3ccc4ccccc4n3)ccc2n1Cc1ccc2ccccc2n1", "note": "[Example 18, 2-Methyl-5-(2-quinolinylmethoxy)-1,2-(quinolinylmethy)-1H-indole-3-acetic acid]", "values": [
      {"measurement": "inhibition at 500 µM", "setting": "[4]", "value": -31, "unit": "%"},
      {"measurement": "IC50", "setting": "[1]; Table III, read-out: IC50 HSF (human synovial fluid)", "value": 27, "unit": "µM"},
      {"measurement": "inhibition", "setting": "[1]", "value": 30, "unit": "%"},
      {"measurement": "% Change in Edema", "setting": "[6]", "value": -19, "unit": "%"},
      {"measurement": "inhibition", "setting": "human platelet PLA2", "value": 47, "unit": "%"},
      {"measurement": "inhibition at 500 µM", "setting": "[5]", "value": 88, "unit": "%"},
      {"measurement": "Kb", "setting": "[3]", "value": 1410, "unit": "nM"}
    ]},
    {"smiles": "CC1(C)OCCc2c1[nH]c1ccc(OCc3ccc4ccccc4n3)cc21", "note": "[Example 14, 1,3,4,9-Tetrahydro-1,1-dimethyl-6-(2-quinolinylmethoxy)pyrano[3,4-b]indole]", "values": [
      {"measurement": "inhibition at 10000 µM", "setting": "[4]", "value": -48, "unit": "%"},
      {"measurement": "% Inhibition 50 mg/kg (peroral)", "setting": "carrageenan paw edema; 50 mg/kg peroral, 3 hours after carrageenan", "value": 27, "unit": "%"},
      {"measurement": "inhibition at 10000 µM", "setting": "[5]", "value": 91, "unit": "%"}
    ]},
    {"smiles": "CCOC(=O)Cc1c(C)n(Cc2ccccc2)c2ccc(OCc3nc4ccccc4s3)cc12", "note": "[Example 50, 5-(2-Benzothiazolylmethoxy)-1-(phenylmethyl)-2-methyl-1H-indole-3-acetic acid ethyl ester]", "values": [
      {"measurement": "inhibition", "setting": "[1]", "value": 2, "unit": "%"},
      {"measurement": "% Inhibition of LTB4", "setting": "[2]", "value": 95, "unit": "%"},
      {"measurement": "Kb", "setting": "[3]", "value": 3980, "unit": "nM"}
    ]}
  ]
}
